Patent US6277851A, “Bicyclic amino-pyrazinone compounds” (priority 1999, dated 2001)
Structures can show the parent of a compound that is named as a salt.

Tests used:
human plasma [1] = assay: Anti-coagulant activity, thrombin time (TT) in human plasma; format: biochemical; conditions: 37° C.
Method: (§1) In order to evaluate the anti-coagulant activity of the compounds of the invention, the thrombin time (TT) and activated cephalin time (ACT) were determined from human plasma samples. An ST4 coagulometer (Diagnostica Stago, France) was used. Plasma, deficient in platelets and lyophilised (Stago), is taken up in distilled water. The TT is obtained using the reagent Prest Thrombin and the ACT using the reagent PTT Automate […]. […] Under those conditions, the TT is of the order of 18 seconds and the ACT is of the order of 12 seconds. The activity of an antagonist is evaluated by its capacity to prolong the TT and the ACT relative to the control. The effect of the inhibitors is expressed by the concentration in μM that doubles the coagulation time (Ctt2).

human plasma [2] = assay: Anti-coagulant activity, activated cephalin time (ACT) in human plasma; format: biochemical; conditions: 37° C.
Method: as §1

human thrombin = target: T1, human thrombin (Homo sapiens, UniProt P00734); assay: Inhibition of human thrombin (fibrinogen substrate, fibrin formation); format: biochemical; conditions: human thrombin 0.7 nM, 10 min preincubation, 20° C., pH 7.4
T1 construct: purchased Sigma
Method: (§2) Inhibitors, enzymes and substrates are diluted in the same buffer ([…] phosphate buffer, pH 7.4, containing 0.12 M sodium chloride and 0.05% of bovine serum albumin) and then distributed on a polystyrene microtitre plate in a volume of 50 μl. The fibrin formed by the thrombin or by the paranitroanilide released by the action of the serine protease is measured using a spectrophotometer at 405 nm after from 15 to 30 minutes' reaction at 20° C. Table 2 below gives in nM the concentration of the compounds that inhibits 50% of the enzymatic activity (IC50) of the thrombin compared with the control without product.

dog plasma [3] = assay: Anti-coagulant activity after administration per os to dogs, TT; format: in vivo; conditions: p.o.
Method: (§3) […] The coagulation times (TT, ACT) are determined from dog plasma samples 10 minutes before and 30 min, 1 hour, 2 hours, 4 hours and 6 hours after administration of the products.

uPA = uPA (Homo sapiens, UniProt P00749); assay: Inhibition of fibrinolysis serine proteases: uPA; format: biochemical; conditions: fibrinolysis protease
Method: as §2, with “Table 3” for “Table 2”, “the fibrinolysis proteases.” for “the thrombin compared with the control without product.”

dog plasma [4] = assay: Anti-coagulant activity after administration per os to dogs, ACT; format: in vivo; conditions: p.o.
Method: as §3

human plasmin = target: T2, human plasmin (Homo sapiens, UniProt P00747); assay: Inhibition of fibrinolysis serine proteases: plasmin; format: biochemical; conditions: human plasmin 2 nM, substrate S 2403 0.50 mM, 20° C., pH 7.4
T2 construct: purchased Stago
Method: as §2, with “Table 3” for “Table 2”, “the fibrinolysis proteases.” for “the thrombin compared with the control without product.”

t-PA = t-PA (Homo sapiens, UniProt P00750); assay: Inhibition of fibrinolysis serine proteases: t-PA; format: biochemical; conditions: fibrinolysis protease
Method: as §2, with “Table 3” for “Table 2”, “the fibrinolysis proteases.” for “the thrombin compared with the control without product.”

T2 sequence (P00747 581-810 limits assumed): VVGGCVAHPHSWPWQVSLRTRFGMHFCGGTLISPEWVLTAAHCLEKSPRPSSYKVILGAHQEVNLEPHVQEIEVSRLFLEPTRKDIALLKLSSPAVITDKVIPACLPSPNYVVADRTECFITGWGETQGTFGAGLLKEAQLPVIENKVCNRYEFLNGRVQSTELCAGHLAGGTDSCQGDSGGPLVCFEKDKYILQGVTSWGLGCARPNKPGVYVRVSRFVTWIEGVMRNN
Chain of t-PA (P00750 36-562): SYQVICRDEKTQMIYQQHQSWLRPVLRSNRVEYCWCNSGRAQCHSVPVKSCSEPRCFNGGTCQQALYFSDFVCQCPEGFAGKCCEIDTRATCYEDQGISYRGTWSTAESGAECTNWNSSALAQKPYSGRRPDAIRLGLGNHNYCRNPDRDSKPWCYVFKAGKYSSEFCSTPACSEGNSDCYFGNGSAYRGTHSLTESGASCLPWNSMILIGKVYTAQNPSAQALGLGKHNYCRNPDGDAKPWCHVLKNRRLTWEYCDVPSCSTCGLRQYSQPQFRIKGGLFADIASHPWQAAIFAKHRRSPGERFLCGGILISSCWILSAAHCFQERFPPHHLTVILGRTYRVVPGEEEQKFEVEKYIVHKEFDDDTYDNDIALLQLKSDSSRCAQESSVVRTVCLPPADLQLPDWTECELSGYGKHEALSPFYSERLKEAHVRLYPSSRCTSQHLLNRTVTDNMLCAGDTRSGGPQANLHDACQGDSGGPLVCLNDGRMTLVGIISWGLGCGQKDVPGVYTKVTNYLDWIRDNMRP

IC50 (human thrombin) | IC50 (uPA) | IC50 (human plasmin) | IC50 (t-PA) | SMILES | TT Ctt2 (concentration that doubles the coagulation time) (human plasma [1]) | ACT Ctt2 (concentration that doubles the coagulation time) (human plasma [2]) | Maximum TT increase (number of times by which the initial time has been increased) (dog plasma [3]; 3 mg/kg) | Maximum ACT increase (number of times by which the initial time has been increased) (dog plasma [4]; 3 mg/kg) | Maximum TT increase (number of times by which the initial time has been increased) (dog plasma [3]; 10 mg/kg) | Maximum ACT increase (number of times by which the initial time has been increased) (dog plasma [4]; 10 mg/kg)
0.006 µM |  |  |  | Cc1nc(N)ccc1CNC(=O)[C@@H]1CCc2cnc(NCC(c3ccccc3)c3ccccn3)c(=O)n21 (single isomer, unassigned) [Example 20] | 0.15 µM | 2.17 µM | 4.4 times | 1.4 times |  | 
0.029 µM |  |  |  | Cc1nc(N)ccc1CNC(=O)[C@@H]1CCc2cnc(NCCc3cccc4ccccc34)c(=O)n21 [Example 50, (6S)-N-[(6-Amino-2-methyl-3-pyridyl)methyl]-3-[2-(1-naphthyl)ethylamino]-4-oxo-4,6,7,8-tetrahydropyrrolo[1,2-a]pyrazine-6-carboxamide dihydrochloride] |  |  |  |  |  | 
0.011 µM | > 33 µM | > 33 µM | > 33 µM | Cc1nc(N)ccc1CNC(=O)[C@@H]1CCc2cnc(NCC(c3ccccc3)c3ccccc3)c(=O)n21.Cl.Cl [Example 6, (6S)-N-[(6-Amino-2-methyl-3-pyridyl)methyl]-3-[(2,2-diphenylethyl)amino]-4-oxo-4,6,7,8-tetrahydropyrrolo[1,2-a]pyrazine-6-carboxamide dihydrochloride] | 0.4 µM | 2.5 µM |  |  | 6.2 times | 1.7 times
0.043 µM |  |  |  | Cc1nc(N)ccc1CNC(=O)[C@@H]1CCc2cnc(NCC3c4ccccc4CCc4ccccc43)c(=O)n21 [Example 40, (6S)-N-[(6-Amino-2-methyl-3-pyridyl)methyl]-3-[(10,11-dihydro-5H-dibenzo[a,d]cyclohepten-5-yl)methylamino]-4-oxo-4,6,7,8-tetrahydropyrrolo[1,2-a]pyrazine-6-carboxamide dihydrochloride] |  |  |  |  |  | 
0.034 µM | > 33 µM | > 33 µM | > 33 µM | Cc1nc(N)ccc1CNC(=O)[C@@H]1CCc2cnc(NCCc3ccccc3)c(=O)n21 [Example 1, (6S)-N-[(6-Amino-2-methyl-3-pyridyl)methyl]-4-oxo-3-(2-phenethylamino)-4,6,7,8-tetrahydropyrrolo[1,2-a]pyrazine-6-carboxamide dihydrochloride] | 3 µM | 9.1 µM | 3.6 times | 1.6 times |  | 

The remaining lines, values behind:

SMILES | IC50 (human thrombin) | IC50 (uPA) | IC50 (human plasmin) | IC50 (t-PA) | TT Ctt2 (concentration that doubles the coagulation time) (human plasma [1]) | ACT Ctt2 (concentration that doubles the coagulation time) (human plasma [2]) | Maximum TT increase (number of times by which the initial time has been increased) (dog plasma [3]; 3 mg/kg) | Maximum ACT increase (number of times by which the initial time has been increased) (dog plasma [4]; 3 mg/kg) | Maximum TT increase (number of times by which the initial time has been increased) (dog plasma [3]; 10 mg/kg) | Maximum ACT increase (number of times by which the initial time has been increased) (dog plasma [4]; 10 mg/kg)
Cc1cc(CNC(=O)[C@@H]2CCc3cnc(NCCc4ccccn4)c(=O)n32)c(C)nc1N.Cl.Cl.Cl [Example 68, (6S)-N-[(6-Amino-2,5-dimethyl-3-pyridyl)methyl]-3-[2-(2-pyridyl)ethylamino]-4-oxo-4,6,7,8-tetrahydropyrrolo[1,2-a]pyrazine-6-carboxamide trihydrochloride] | 0.016 µM |  |  |  | 0.23 µM | 2.04 µM |  |  |  | 
COc1ccc(C(CNc2ncc3n(c2=O)[C@H](C(=O)NCc2ccc(N)nc2C)CC3)c2ccc(OC)cc2)cc1.Cl.Cl [Example 23, (6S)-N-[(6-Amino-2-methyl-3-pyridyl)methyl]-3-[2,2-bis-(4-methoxy-phenyl)ethylamino]-4-oxo-4,6,7,8-tetrahydropyrrolo[1,2-a]pyrazine-6-carboxamide dihydrochloride] | 0.0039 µM |  |  |  | 0.24 µM | 2.75 µM |  |  |  | 
Cc1nc(N)ccc1CNC(=O)[C@@H]1CCc2cnc(NCCc3ccccn3)c(=O)n21.Cl.Cl.Cl [Example 15, (6S)-N-[(6-Amino-2-methyl-3-pyridyl)methyl]-4-oxo-3-[2-(2-pyridyl)ethylamino]-4,6,7,8-tetrahydropyrrolo[1,2-a]pyrazine-6-carboxamide trihydrochloride] | 0.007 µM | > 33 µM | > 33 µM | > 33 µM | 0.11 µM | 1.3 µM | 7 times | 1.6 times |  | 
CCNC(=O)COc1ccccc1CNC(=O)[C@@H]1CCc2cnc(NCC(c3ccccc3)c3ccccc3)c(=O)n21 [Example 103, (6S)-N-[(2-Ethylcarbamoylmethoxy)-benzyl]-4-oxo-3-(2,2-diphenylethylamino)-4,6,7,8-tetrahydropyrrolo[1,2-a]pyrazine-6-carboxamide hydrochloride] | 0.014 µM |  |  |  |  |  |  |  |  | 
Cc1nc(N)ccc1CNC(=O)[C@@H]1CCc2cnc(NCC(c3ccccn3)c3ccccn3)c(=O)n21.Cl.Cl.Cl.Cl [Example 22, (6S)-N-[(6-Amino-2-methyl-3-pyridyl)methyl]-3-[2,2-di-(2-pyridyl)ethylamino]-4-oxo-4,6,7,8-tetrahydropyrrolo[1,2-a]pyrazine-6-carboxamide tetrahydrochloride] | 0.02 µM |  |  |  | 0.22 µM | 3.07 µM |  |  | 4.5 times | 1.5 times
COc1ccc(CCNc2ncc3n(c2=O)[C@H](C(=O)NCc2ccc(N)nc2C)CC3)cc1OC.Cl.Cl.O [Example 7, (6S)-N-[(6-Amino-2-methyl-3-pyridyl)methyl]-3-[(3,4-dimethoxyphenethyl)amino]-4-oxo-4,6,7,8-tetrahydropyrrolo[1,2-a]pyrazine-6-carboxamide dihydrochloride monohydrate] | 0.042 µM | > 33 µM | > 33 µM | > 33 µM | 3 µM | 9.1 µM | 2.5 times | 1.4 times |  | 
COc1ccc(C(CNc2ncc3n(c2=O)C(C(=O)NCc2ccc(N)nc2C)CC3)c2ccc(OC)cc2)cc1.Cl.Cl (centres unmarked) [Example 98, N-[(6-Amino-2-methyl-3-pyridyl)-methyl]-3-[2,2-bis-(4-methoxy-phenyl)-ethylamino]-4-oxo-4,6,7,8-tetrahydropyrrolo[1,2-a]pyrazine-6-carboxamide dihydrochloride] | 0.008 µM | > 33 µM | > 33 µM | > 33 µM | 0.33 µM | 3.54 µM |  |  | 6.1 times | 1.4 times
Cc1nc(N)ccc1CNC(=O)[C@@H]1CCc2cnc(NCCc3cccnc3)c(=O)n21.Cl.Cl.Cl [Example 16, (6S)-N-[(6-Amino-2-methyl-3-pyridyl)methyl]-4-oxo-3-[2-(3-pyridyl)ethylamino]-4,6,7,8-tetrahydropyrrolo[1,2-a]pyrazine-6-carboxamide trihydrochloride] | 0.017 µM |  |  |  | 0.17 µM | 1.6 µM |  |  | 13.3 times | 2.4 times
CCNC(=O)COc1ccccc1CNC(=O)[C@@H]1CCc2cnc(NCCc3ccccc3)c(=O)n21 [Example 71, (6S)-N-[(2-Ethylcarbamoylmethoxy)benzyl]-4-oxo-3-(2-phenethylamino)-4,6,7,8-tetrahydropyrrolo [1,2-a]pyrazine-6-carboxamide] | 0.013 µM | > 33 µM | > 33 µM | > 33 µM |  |  |  |  |  | 
